Assay results reported in the NIST ThermoML archive (doi:10.1021/acs.jced.8b00176).
± gives the expanded uncertainty stated by the source.

Assay: xn = mol fraction of the nth substance listed
Conditions: 100 kPa, Liquid; for viscosity: Falling or rolling sphere viscometry; for speed of sound: Frequency=3 MHz, Single path-length method; for mass density: Vibrating tube method

CC#N [acetonitrile] + CN(C)C=O
Conditions	mass density, 313.15 K [kg/m3]	mass density, 318.15 K [kg/m3]	mass density, 323.15 K [kg/m3]	speed of sound, 313.15 K [m/s]	speed of sound, 318.15 K [m/s]	speed of sound, 323.15 K [m/s]	viscosity, 313.15 K [mPa·s]	viscosity, 318.15 K [mPa·s]	viscosity, 323.15 K [mPa·s]
x2 = 0	760.339 ± 2	754.815 ± 2	749.253 ± 2	1218 ± 2.2	1197.9 ± 2.2	1177.8 ± 2.2	0.3	0.29	0.28
x2 = 0.0989	786.729 ± 2	781.363 ± 2	776.028 ± 2	1243 ± 2.2	1223.3 ± 2.2	1203.5 ± 2.2	0.35	0.33	0.32
x2 = 0.1916	810.757 ± 2	805.527 ± 2	800.222 ± 2	1262.8 ± 2.2	1243.1 ± 2.2	1223.4 ± 2.2	0.39	0.37	0.35
x2 = 0.2925	829.087 ± 2	823.852 ± 2	818.614 ± 2	1280.9 ± 2.2	1261.3 ± 2.2	1241.9 ± 2.2	0.42 ± 0.2	0.4	0.38
x2 = 0.3932	850.487 ± 2	845.354 ± 2	840.213 ± 2	1303.2 ± 2.2	1283.7 ± 2.2	1264.4 ± 2.2	0.46 ± 0.2	0.44 ± 0.2	0.42 ± 0.2
x2 = 0.5029	865.854 ± 2	860.76 ± 2	855.738 ± 2	1319.2 ± 2.2	1299.9 ± 2.2	1280.6 ± 2.2	0.51 ± 0.2	0.49 ± 0.2	0.46 ± 0.2
x2 = 0.6002	880.698 ± 2	875.703 ± 2	870.738 ± 2	1337.9 ± 2.2	1318.6 ± 2.2	1299.4 ± 2.2	0.55 ± 0.2	0.52 ± 0.2	0.5 ± 0.2
x2 = 0.6931	893.049 ± 2	888.143 ± 2	883.209 ± 2	1353.3 ± 2.2	1334 ± 2.2	1314.8 ± 2.2	0.58 ± 0.2	0.55 ± 0.2	0.53 ± 0.2
x2 = 0.7926	907.663 ± 2	902.79 ± 2	897.991 ± 2	1371.3 ± 2.2	1352.1 ± 2.2	1332.9 ± 2.2	0.63 ± 0.2	0.59 ± 0.2	0.56 ± 0.2
x2 = 0.8996	918.366 ± 2	913.57 ± 2	908.741 ± 2	1384.7 ± 2.2	1365.5 ± 2.2	1346.3 ± 2.2	0.69 ± 0.2	0.63 ± 0.2	0.6 ± 0.2
